Data from BindingDB's records for doi:10.3109/14756366.2013.823957 (National Tsing Hua University, 2014).

molecular target: Cathepsin S (Homo sapiens, UniProt P25774); assay: Cathepsin Activity Assay; details: pH 6.5; 25 °C
Protocol: A microplate-based screening procedure was used to study the effect of inhibition of re-Cat S, re-Cat L and re-Cat K on several compounds. The assays were performed in quadruplicates at 25 °C in a buffer containing 50 mM MES, pH 6.5, 2.5 mM EDTA and 1 mM DTT for re-Cat S, or 100 mM NaOAc, pH 5.5, 1 mM DTT and 2 mM EDTA for re-Cat L, or 50 mM MES, pH 5.5, 5 mM DTT and 2.5 mM EDTA for re-Cat K. Each of tested compounds at 100 nM was incubated with 50 nM re-Cat S, 31.25 pM re-Cat L or 10 nM re-Cat K at 37 °C for 10 min before initiating the reaction with the addition of 5 μM relevant substrate (Z-Phe-Arg-AMC for Cat L and Cat K, and Z-Val-Val-Arg-AMC for Cat S), respectively [Ward et al., J. Med. Chem., 45:5471-82]. Reactions in microplates were kept at 37 °C for another 30 min and then to collect the fluorescent signals from each well in microplates. E64 and 1% DMSO were applied as positive and solvent control, respectively. Fluorimetric assays were performed at 37 °C on a Perkin Elmer LS55 fluorescence spectrophotometer (Waltham, MA) with excitation at 370 nm and emission at 460 nm wavelengths. The inhibitory ability of a tested compound was determined by decreased fluorescence compared to DMSO control.

Chain of Cathepsin S (P25774 whole entry): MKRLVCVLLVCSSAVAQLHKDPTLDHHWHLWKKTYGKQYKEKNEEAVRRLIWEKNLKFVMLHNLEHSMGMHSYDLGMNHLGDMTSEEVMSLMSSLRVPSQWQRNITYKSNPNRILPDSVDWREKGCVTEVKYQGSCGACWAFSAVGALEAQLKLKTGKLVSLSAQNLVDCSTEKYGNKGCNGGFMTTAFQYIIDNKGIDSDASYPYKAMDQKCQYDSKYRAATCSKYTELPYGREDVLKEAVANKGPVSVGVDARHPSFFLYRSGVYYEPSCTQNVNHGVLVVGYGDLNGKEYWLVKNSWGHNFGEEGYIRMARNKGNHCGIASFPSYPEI

Row | SMILES | IC50 [nM]
1 | CCOC(=O)CNC(=O)C(=O)C(COCc1ccccc1)NC(=O)C(CC1CCCCC1)NC(=O)N1CCOCC1 (stereo not drawn) [Cathepsin S inhibitor alpha-ketoamide, 6a] | 4.4
2 | CCOC(=O)CNC(=O)C(=O)C(COCc1ccccc1)NC(=O)C(CC1CCCCC1)NC(=O)c1ccc(C(=O)OC)c(N)c1 (stereo not drawn) [Cathepsin S inhibitor alpha-ketoamide, 6p] | 5.8
3 | CCOC(=O)CNC(=O)C(=O)C(COCc1ccccc1)NC(=O)C(CC1CCCCC1)NC(=O)c1cccc([N+](=O)[O-])c1 (stereo not drawn) [Cathepsin S inhibitor alpha-ketoamide, 6b] | 2
4 | CC(C)(C)CC(C)(C)NC(=O)C(=O)C(COCc1ccccc1)NC(=O)C(CC1CCCCC1)NC(=O)N1CCOCC1 (stereo not drawn) [Cathepsin S inhibitor alpha-ketoamide, 6w] | 3.1

Next, values leading:

Row | IC50 [nM] | SMILES
5 | 8.8 | CCOC(=O)CNC(=O)C(=O)C(COCc1ccccc1)NC(=O)C(CC1CCCCC1)NC(=O)c1cccc2c1C(=O)c1ccccc1-2 (stereo not drawn) [Cathepsin S inhibitor alpha-ketoamide, 6r]
6 | 49.2 | CCOC(=O)CNC(=O)C(=O)C(COCc1ccccc1)NC(=O)C(CC1CCCCC1)NC(=O)c1ccc(C(=O)OC)c(NC(=O)OC(C)(C)C)c1 (stereo not drawn) [Cathepsin S inhibitor alpha-ketoamide, 6n]
7 | 3.1 | CCOC(=O)CNC(=O)C(=O)C(COCc1ccccc1)NC(=O)C(CC1CCCCC1)NC(=O)c1cc(OC)ccc1[N+](=O)[O-] (stereo not drawn) [Cathepsin S inhibitor alpha-ketoamide, 6e]
